Like-named read-outs stand apart in the source and are kept apart here. A value given as a limit tells only on which side of the number the result lay.

The term IC50 denotes the concentration at which inhibition is half-maximal.

For data set [1], the system named is fibrosarcoma HT1080. Nature of the data set: Xenograft model in nude mice, fibrosarcoma HT1080. The format is in vivo, human. The conditions noted are these: reference compound. As to the method: (§1) The compounds of the invention were evaluated in human tumor xenograft mouse models. Nude mice were subcutaneously implanted with tumor cells (melanoma A2058, colon carcinoma HCT116, fibrosarcoma HT1080 and acute myelocytic leukemia MV114) and when the tumor reached a volume of about 100-150 mm^3, treatment was initiated. Tumor growth was followed over time until tumor volume reached 1000-1500 mm^3 or up to 60 days. An example of how tumor developed over time when the animals were administered or not with E3 three times once a week (qwk×3) is presented in FIG. 7. […]
A general note: A xenograft is tissue or cells of one species grown in another, often human tumour cells in immunodeficient mice.

Data set [2] concerns Jurkat cells. Nature of the data set: Jurkat cell viability, resazurin (Alamar Blue) assay. It is filed as cell-based. As to conditions: Homo sapiens. As to the method:
The compounds were tested for pharmacological activity. In each of the tests, each compound was tested at […] in duplicates. […] The percentage of response relative to the DMSO control was then calculated for the mean value of the duplicates of each test. The values of the three tests were finally averaged and the standard deviations calculated.
Jurkat cells (10'000 cells/well) were incubated in the presence of various concentrations of compounds, doxorubicin or staurosporine. Twenty-two hours later, cells were incubated with resazurin (20 μg/ml) for 4 hours and fluorescence was measured at 590 nm.
A general note: Alamar Blue is a resazurin reagent that responds to reducing activity.

In data set [3] the target is purified porcine tubulin (Sus scrofa, UniProt P02550+P02554). Nature of the data set: Inhibition of 3H-labeled colchicine binding to purified tubulin, scintillation proximity assay. As to conditions: graded doses. As to the method:
A series of compounds according to the invention and C14 vincristine and colchicine were tested for their capacity to inhibit ^3H-labeled colchicine binding to purified tubulin. Briefly, a limiting amount of tritium-labeled colchicine and graded doses of test compounds were added to purified porcine tubulin. After an incubation period, radioactivity associated with tubulin was determined using a scintillation proximity assay. […] By showing that these compounds interact with the colchicine binding site, it differentiates them from the tubulin inhibitors of the Vinca alkaloid- and taxane-types. The results also indicate that the compounds of the invention can be used in combination with the Vinca alkaloid- and taxane-types of tubulin inhibitors since they bind to a different aspect of tubulin, and likely affect tubulin polymerization via a different mechanism. The results also indicate that the compounds of the invention can be used even in patients who are refractory or non-responsive to other tubulin inhibitors, such as the tubulin inhibitors of the Vinca alkaloid- and taxane-types.
A general note: SPA uses beads or plates that emit light when radiolabelled molecules are held near them.

The subject of data set [4] is caspase 3 and 7. Nature of the data set: Apoptosis induction in Jurkat cells, caspase 3 and 7 assay. It is filed as cell-based. The conditions noted are these: for IC50: Homo sapiens, Jurkat cells, caspase 3/7 assay. As to the method:
Compounds were assessed for their ability to induce apoptosis of Jurkat cells at 2 and 10 micromolar after 4 and 22 hours.
In order to firmly establish that the compounds of the invention cause cytotoxicity through apoptosis, IC50 of five compounds of the invention, doxorubicin and staurosporin were determined in the caspase assays; results are presented in Table 2. Importantly, the IC50 determined in the Alamar Blue and in the caspase assays were largely overlapping.

The nature of data set [5]: Solubilization in intravenous formulation. It is filed as physicochemical. As to conditions: 5% Cremophor and 5% ethanol in water. From the text: This formulation was then used for the subsequent animal studies (maximal tolerated dose, pharmacokinetics and efficacy in cancer models).
A short description of data set [6]: Pharmacokinetics after intravenous injection, plasma concentration. The format is in vivo. As to conditions: mice, intravenous, after four hours. On the procedure: The pharmacokinetics of E3 and E35 were investigated. Mice intravenously injected with 15 mg/kg of E3 were bled after 0, 1, 5, 10, 20, 30, 60, 120 and 480 minutes. […] For E35, mice intravenously injected with 30 mg/kg of […] were bled after 0, 1, 5, 10, 20, 30, 60, 120 and 480 minutes. […] Concentration then decreased steadily over the 8 hours of the study. During the first four hours after injection, circulating concentrations of E3 and E35 were found largely similar.

Data set [7] relates to colon carcinoma HCT116. Nature of the data set: Xenograft model in nude mice, colon carcinoma HCT116. The format is in vivo, human. The conditions noted are these: reference compound. As to the method: as §1
The mark [8] stands for this setting: Jurkat cells, 22 h then resazurin 4 h, three experiments in duplicates, read-out: IC50.
Setting [9] is: Jurkat, control compounds of the tests, read-out: IC50 of control agents included in each test.

Sequence of purified porcine tubulin (P02554 whole entry): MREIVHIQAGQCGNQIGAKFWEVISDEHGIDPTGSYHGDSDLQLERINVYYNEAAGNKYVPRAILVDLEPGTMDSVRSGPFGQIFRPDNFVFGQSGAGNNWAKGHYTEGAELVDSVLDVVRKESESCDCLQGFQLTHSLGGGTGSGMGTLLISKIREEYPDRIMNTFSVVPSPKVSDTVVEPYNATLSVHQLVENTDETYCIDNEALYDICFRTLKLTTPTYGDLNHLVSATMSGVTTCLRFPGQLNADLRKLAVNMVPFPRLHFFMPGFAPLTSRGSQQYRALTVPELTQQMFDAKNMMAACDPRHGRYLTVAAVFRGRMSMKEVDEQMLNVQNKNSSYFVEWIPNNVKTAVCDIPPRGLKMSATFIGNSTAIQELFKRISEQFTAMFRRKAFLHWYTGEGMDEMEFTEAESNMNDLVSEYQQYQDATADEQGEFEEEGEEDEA
Sequence of purified porcine tubulin (P02550 whole entry): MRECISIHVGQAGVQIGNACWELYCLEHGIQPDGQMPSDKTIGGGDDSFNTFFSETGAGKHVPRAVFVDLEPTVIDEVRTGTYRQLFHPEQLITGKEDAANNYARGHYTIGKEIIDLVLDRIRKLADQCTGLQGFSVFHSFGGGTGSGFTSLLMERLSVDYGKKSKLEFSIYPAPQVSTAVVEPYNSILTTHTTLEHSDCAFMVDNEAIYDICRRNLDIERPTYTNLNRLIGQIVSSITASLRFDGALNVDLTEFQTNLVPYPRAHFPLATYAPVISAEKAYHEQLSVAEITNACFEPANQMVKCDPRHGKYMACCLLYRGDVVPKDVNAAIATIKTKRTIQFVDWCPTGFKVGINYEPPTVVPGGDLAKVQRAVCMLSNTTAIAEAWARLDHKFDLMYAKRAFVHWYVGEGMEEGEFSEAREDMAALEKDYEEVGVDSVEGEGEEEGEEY

Consider `CC(=O)O[C@@]12CO[C@@H]1C[C@H](O)[C@@]1(C)C(=O)[C@H](O)C3=C(C)[C@@H](OC(=O)[C@H](O)[C@@H](NC(=O)OC(C)(C)C)c4ccccc4)C[C@@](O)([C@@H](OC(=O)c4ccccc4)[C@H]21)C3(C)C` [Docetaxel, reference compound], for which the “Control with reference compound and days to study endpoint” value in data set [1] was “not reached by day 58 days”.

With `COc1cc(-c2ccc3[nH]c4c(C)nccc4c3c2)cc(OC)c1OC` [Example C14], the IC50 in data set [2] (setting [8]) was more than 10000 nM. Besides, the “inhibition of 3H-labeled colchicine binding to tubulin” value (shortened to “inhibition”) in data set [3] was “did not inhibit colchicine binding”.

With `Cc1nccc2c1[nH]c1ccc(-c3ccccc3)cc12` [Example E1, 6-phenyl-1-methyl-9H-pyrido[3,4-b]indole], the IC50 in data set [2] (setting [8]) came to 413 nM. Besides, the “caspase 3 and 7 activity compared to solvent control (%)” value (“caspase 3 and 7 activity … (%)” below) in data set [4] (2 μM after 4 h) was −8.5%; in data set [4] (2 μM after 22 h) it was 618.5%; in data set [4] (10 μM after 4 h), −10.0%; in data set [4] (10 μM after 22 h), 535.9%.

As for `Cc1nccc2c1[nH]c1ccc(-c3cccc(Cl)c3)cc12` [Example E2, 6-(3-chlorophenyl)-1-methyl-9H-pyrido[3,4-b]indole], the IC50 was determined as 104 nM in data set [2] (setting [8]) and 0.108 µM in data set [4].

Turning to `Cc1nccc2c1[nH]c1ccc(-c3cccc(C(F)(F)F)c3)cc12` [Example E6, 6-(3-(trifluoromethyl)phenyl)-1-methyl-9H-pyrido[3,4-b]indole], the IC50 in data set [2] (setting [8]) is 1260 nM. In addition, the “caspase 3 and 7 activity … (%)” value in data set [4] (2 μM after 4 h) worked out at 9.2%; in data set [4] (2 μM after 22 h), 482.6%; in data set [4] (10 μM after 4 h), 11.2%; in data set [4] (10 μM after 22 h) it was 585.1%.

For the compound `CCOc1ccc(F)c(-c2ccc3[nH]c4c(C)nccc4c3c2)c1` [Example E7, 6-(5-ethoxy-2-fluorophenyl)-1-methyl-9H-pyrido[3,4-b]indole], in data set [2] (setting [8]), the IC50 turned out to be 775 nM. Also, the “caspase 3 and 7 activity … (%)” value in data set [4] (2 μM after 4 h) is recorded as −7.6%; in data set [4] (2 μM after 22 h), 616.1%; in data set [4] (10 μM after 4 h), −10.2%; in data set [4] (10 μM after 22 h) it was 548.1%.

On to `COc1cccc(-c2ccc3[nH]c4c(C)nccc4c3c2)c1` [Example E9, 6-(3-methoxyphenyl)-1-methyl-9H-pyrido[3,4-b]indole], for which the 50% inhibitory concentration (IC50) in data set [2] (setting [8]) was determined as 137 nM; in data set [4], 0.215 µM.

Turning to `Cc1nccc2c1[nH]c1ccc(-c3cccc(C#N)c3)cc12` [Example E21, 6-(3-cyanophenyl)-1-methyl-9H-pyrido[3,4-b]indole], the concentration for half-maximal inhibition (IC50) in data set [2] (setting [8]) is 47 nM; in data set [4], 0.061 µM.

`Cc1nccc2c1[nH]c1ccc(-c3cccnc3)cc12` [Example E25, 6-(pyridine-3-yl)-1-methyl-9H-pyrido[3,4-b]indole]: the concentration for half-maximal inhibition (IC50) in data set [2] (setting [8]) is 602 nM. For the same compound, the “caspase 3 and 7 activity … (%)” value in data set [4] (2 μM after 4 h) is −0.6%; in data set [4] (2 μM after 22 h), 624.4%; in data set [4] (10 μM after 4 h), 18.7%; in data set [4] (10 μM after 22 h), 405.7%.

As to `Cc1nccc2c1[nH]c1ccc(-c3ccc4c(c3)CCO4)cc12` [Example E29, 6-(2,3-dihydrobenzofuran-5-yl)-1-methyl-9H-pyrido[3,4-b]indole], the results for the 50% inhibitory concentration (IC50) in data set [2] (setting [8]) and in data set [4] were 64 nM and 0.128 µM, respectively.

As for `CCc1nccc2c1[nH]c1ccc(-c3cccc(C(N)=O)c3)cc12` [Example E35, 6-(3-aminocarbonylphenyl)-1-ethyl-9H-pyrido[3,4-b]indole], the midpoint of inhibition in data set [2] (Jurkat), the IC50, lay at 4 nM. Moreover, the “suitability of the formulation” value in data set [5] is listed as “adequate”. Besides, the “circulating concentration compared with E3” value in data set [6] was “substantially lower circulating concentration than E3”. In data set [3], the “inhibition” value is “inhibited binding of colchicine”.

Turning to `CCc1nccc2c1[nH]c1ccc(-c3cccc(NS(C)(=O)=O)c3)cc12` [Example E44, N-(3-(1-ethyl-9H-pyrido[3,4-b]indol-6-yl)phenyl)methanesulfonamide], half-maximal inhibition in data set [2] (Jurkat) (IC50) required 90 nM. Besides, the “suitability of the formulation” value in data set [5] was “adequate”. The “inhibition” value in data set [3] is “inhibited binding of colchicine”.

As for `Cc1nccc2c1[nH]c1ccc(-c3cccc(C(=O)NCCO)c3)cc12` [Example E48, N-(2-hydroxyethyl)-3-(1-methyl-9H-pyrido[3,4-b]indol-6-yl)benzamide], the IC50 in data set [2] (setting [8]) came out at 627 nM.

On to `Cc1nccc2c1[nH]c1ccc(-c3cccc(CNC(=O)N4CCN(C)CC4)c3)cc12` [Example E49], for which the 50% inhibitory concentration (IC50) in data set [2] (setting [8]) came to 225 nM.

As to `CCc1nccc2c3cc(-c4cccc(C(N)=O)c4)ccc3n(C)c12` [Example E50, 3-(1-ethyl-9-methyl-9H-pyrido[3,4-b]indol-6-yl)benzamide], in data set [2] (setting [8]), the IC50 amounted to 16 nM.

Take `Cc1nccc2c3cc(-c4ccc5c(c4)CCO5)ccc3n(C)c12` [Example E51, 6-(2,3-dihydrobenzofuran-5-yl)-1,9-dimethyl-9H-pyrido[3,4-b]indole]: the IC50 in data set [2] (setting [8]) amounted to 9 nM.

As for `CCc1nccc2c1[nH]c1ccc(-c3cccc(NC(C)=O)c3)cc12` [Example E52, N-(3-(1-ethyl-9H-pyrido[3,4-b]indol-6-yl)phenyl)acetamide], in data set [2] (setting [8]), the IC50 is 18 nM.

`COc1cncc(-c2ccc3[nH]c4c(C)nccc4c3c2)c1` [Example E53, 6-(5-methoxypyridin-3-yl)-1-methyl-9H-pyrido[3,4-b]indole]: in data set [2] (setting [8]), the IC50 came to 2610 nM.

For the compound `Cc1nccc2c1[nH]c1ccc(-c3ccc4c(c3)CCCO4)cc12` [Example E54, 6-(chroman-6-yl)-1-methyl-9H-pyrido[3,4-b]indole], in data set [2] (setting [8]), the half-maximal inhibitory concentration (IC50) was found to be 53 nM.

For the compound `Cc1nccc2c1[nH]c1ccc(-c3cccc(-c4ccco4)c3)cc12` [Example E55, 6-(3-(furan-2-yl)phenyl)-1-methyl-9H-pyrido[3,4-b]indole], the IC50 in data set [2] (setting [8]) was 2200 nM.

Take `Cc1nccc2c1[nH]c1ccc(-c3cccc(CN4CCOCC4)c3)cc12` [Example E56]: in data set [2] (setting [8]), the IC50 is 733 nM.

In the case of `Cc1nccc2c1[nH]c1ccc(-c3cccc(CN4CCN(C)CC4)c3)cc12` [Example E57, 6-(3-((4-methylpiperazin-1-yl)methyl)phenyl)-1-methyl 9H-pyrido[3,4-b]indole], the half-maximal inhibitory concentration (IC50) in data set [2] (setting [8]) was found to be 200 nM.

Take `Cc1cccc2c1[nH]c1ccc(-c3ccc4c(c3)CCO4)cc12` [Example E58, 6-(2,3-dihydrobenzofuran-5-yl)-1-methyl-9H-carbazole]: in data set [2] (setting [8]), the IC50 was determined as 3750 nM.

Take `Cc1nccc2c1[nH]c1ccc(-c3cccc(-n4cccn4)c3)cc12` [Example E59, 6-(3-(1H-pyrazol-1-yl)phenyl)-1-methyl-9H-pyrido[3,4-b]indole]: the IC50 in data set [2] (setting [8]) is 913 nM.

Regarding `Cc1c2[nH]c3ccc(-c4cc(Cl)cc(Cl)c4)cc3c2cc[n+]1[O-]` [Example E60, 6-(3,5-dichlorophenyl)-1-methyl-9H-pyrido[3,4-b]indole 2-oxide], the 50% inhibitory concentration (IC50) in data set [2] (setting [8]) worked out at 25 nM.

As for `CCc1c2c(nc3ccc(OC(=O)N4CCC(N5CCCCC5)CC4)cc13)-c1cc3c(c(=O)n1C2)COC(=O)[C@]3(O)CC` [Irinotecan, reference compound], in data set [7], the “Control with reference compound and days to study endpoint” value is “not reached by day 58 days”.

Consider `COc1cccc2c1C(=O)c1c(O)c3c(c(O)c1C2=O)C[C@@](O)(C(=O)CO)C[C@@H]3O[C@H]1C[C@H](N)[C@H](O)[C@H](C)O1` [doxorubicin, reference compound], for which the 50% inhibitory concentration (IC50) in data set [2] (setting [9]) is 85 nM.

In the case of `CN[C@@H]1C[C@H]2O[C@@](C)([C@@H]1OC)n1c3ccccc3c3c4c(c5c6ccccc6n2c5c31)C(=O)NC4` [staurosporine, reference compound], in data set [2] (setting [9]), the IC50 stood at 31 nM.

(Values after patent publication US20130274258A1, “CARBAZOLE AND CARBOLINE DERIVATIVES, AND PREPARATION AND THERAPEUTIC APPLICATIONS THEREOF” (PHILIP MORRIS PRODUCTS S.A., priority 2010, published 2013).)
